Earlier results in patent EP3819377A1, “CIRCULAR RNA AND USES THEREOF FOR […]-BINDING PROTEINS” (Justus-Liebig-Universität Gießen, priority 2019, dated 2021).

Details: cationic lipid with a tertiary amine group; WO 2012/031046 A2

CCCCC/C=C\C/C=C\CCCCCCCCOCC(CN(C)C)OCCCCCCCC/C=C\C/C=C\CCCCC (stereo not shown) [DLinDMA, 1,2-dilinoleyloxy-N,N-dimethyl-3-aminopropane]
pKa: 5.8
